# Test results from patent publication US5935824A, “Protein expression system” (Technologene, Inc., priority 1996, dated 1999).
# Residues, ends and D or L forms follow the SMILES beside them. *: point of attachment. Cbz = O=C(OCc1ccccc1)*
# Molecular target: T1, carboxypeptidase Y (CPD-Y) immobilized to Acti-Disk (Saccharomyces cerevisiae, UniProt P00729)
# T1 construct: purchased Sigma
# T1 sequence (P00729 112-532): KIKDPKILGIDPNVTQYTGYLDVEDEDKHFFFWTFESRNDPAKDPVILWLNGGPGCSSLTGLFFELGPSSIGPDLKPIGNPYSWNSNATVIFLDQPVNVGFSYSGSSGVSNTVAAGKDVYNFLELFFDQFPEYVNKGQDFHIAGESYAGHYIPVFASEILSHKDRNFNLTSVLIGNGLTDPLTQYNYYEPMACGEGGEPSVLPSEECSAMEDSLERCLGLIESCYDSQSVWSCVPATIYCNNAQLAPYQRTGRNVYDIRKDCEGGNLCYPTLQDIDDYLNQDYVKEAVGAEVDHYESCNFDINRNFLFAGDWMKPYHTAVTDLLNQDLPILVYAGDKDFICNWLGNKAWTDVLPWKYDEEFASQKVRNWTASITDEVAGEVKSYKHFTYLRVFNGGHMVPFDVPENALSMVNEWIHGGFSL
# Experiment: Flow digestion of N-CBZ-peptides through CPD-Y Acti Disk, ninhydrin assays
# Format: biochemical, yeast
# Protocol: The reported Km values for CPD-Y have been generated using extremely low enzyme concentration compared to substrate concentration. The value for Km represents the concentration of substrate that will produce 1/2 the maximum velocity for the initial reaction rates. During the testing of the immobilized CPD-Y enzyme disks with various dipeptide substrates, the maximum flow rate that can be achieved without any substantial increase in the pressure of the solution, is 4 ml/min. At this flow rate, the substrate remains within the immobilized enzyme matrix for 1.74 seconds. This value is determined by dividing the internal porous volume of the matrix to which the enzyme is immobilized (115 μL/4000 μL, min^-1). Due to the high concentration of enzyme (565 μM) within the limited volume of the immobilization matrix (115 μl) a very high percentage of the substrate was hydrolyzed even at these short incubation times which prevents the accurate determination of actual Km values for the individual substrates.
# Standard ninhydrin assay: Hydrolysis of the non-proline containing N-CBZ-dipeptides was determined by assaying the amount of free amino acid released by a colorometric ninhydrin reaction at a pH greater than 5.2. One gram of ninhydrin was dissolved in 50 ml ethylene glycol monomethyl ether containing 0.03% ascorbic acid. This ninhydrin solution was made fresh daily. A 0.4 M Citrate buffer, pH 5.2 was made by adjusting the pH of ACS grade citric acid with NaOH. Two hundred microliter samples at pH greater than 5.2 were mixed with an equal volume of ninhydrin reagent and incubated at 100° C. for 20 minutes. When 200 μl samples below pH 5.2 were to be assayed, 100 μl of 0.4 M Citrate buffer was included prior to heating the sample to 100° C. Samples were then cooled to room temperature and 600 μl of 60% ethanol was added as the diluent and the absorbance was read at 570 nm on a Beckman DU 7000 spectrophotometer.
# Proline ninhydrin assay: Hydrolysis of proline-containing N-CBZ-dipeptides were measured with a modified version of the assay described by Magne and Larher [Anal. Biochem., 200:115 (1982)]. Briefly a ninhydrin reagent containing 2% ninhydrin prepared in glacial acetic acid:water 60:40 (v/v) was prepared. Five hundred microliter samples were combined with 500 μl glacial acetic acid and 500 μl ninhydrin reagent was added. The sample was subsequently boiled for one hour. One milliliter of analytical grade toluene was then used to extract the chromophore and the absorbance was read at 520 nm.
# Concentrations of N-CBZ-Ala-Pro ranging from 4 mM to 100 μM (100 mM citrate, 100 mM NaCl, pH 5.75) were passed through a CPD-Y Acti Disk at a flow rate of 2.0 ml/min. Reaction rates were determined by assaying the appropriate dilutions of the various substrates using the above described proline ninhydrin assay specific of free proline to obtain […] readings below 1.5.
# N-CBZ-Ala-Pro (dissolved in 100 mM citrate, 100 mM NaCl, pH 5.75) at a concentration of 200 μM, was passed through the same CPD-Y Acti Disk at flow rates ranging from 2 ml/min to 175 μl/ min. Five milliliters of each specific flow rate were collected and assayed by the proline ninhydrin assay in order to determine the relative percentage of substrate that was hydrolyzed using the various flow rates. In order to characterize the amount of substrate hydrolyzed per unit of time, flow rates are converted to amount of time that the substrate is within the immobilized enzyme matrix (Acti Disk). The amount of time the substrate is within the immobilized enzyme matrix at a given flow rate is shown below in Table 6.
# The first order rate constant determined for the N-CBZ-Ala-Pro substrate is applicable only as a reference for comparison to other N-CBZ-dipeptide first order rate constants. N-CBZ-Phe-Ala is the substrate used by Sigma to characterize the activity of CPD-Y at 100 units per milligram, 1 unit can hydrolyze 1 μmol of N-CBZ-Phe-Ala per minute. […]
# [1] = flow rate 2 ml/min, 3.45 seconds, pH 5.75, ~25° C.
# [2] = 200 μM substrate, varied flow rates
# [3] = 200 μM substrate, 2 × 2 ml/min (two passes)
# [4] = 200 μM substrate, flow rate 0.25 ml/min, one pass
# [5] = 200 μM substrate, flow rate 1.0 ml/min, one pass
# [6] = 200 μM substrate, flow rate 2.0 ml/min, one pass
# [7] = second flow at 2.0 ml/min, 3.45 seconds
smiles,measurement,setting,value
O=C(O)[C@H](Cc1ccccc1)NC(=O)[C@@H]1CCCN1C(=O)OCc1ccccc1 [N-CBZ-Pro-Phe] (Cbz-Pro-Phe-OH),K^1 min^-1 (first order reaction constant),[1],1.480 min⁻¹
same,Log S/S-P,[1],0.037
C[C@H](NC(=O)[C@H](Cc1ccccc1)NC(=O)OCc1ccccc1)C(=O)O [N-CBZ-Phe-Ala],Concentration of released alanine,"20 mM substrate, flow rate 4 ml/minute",10.49 mM
same,Rate of digestion,"20 mM substrate, flow rate 4 ml/minute, pH 5.75",41.96 µmol/min
C[C@H](NC(=O)OCc1ccccc1)C(=O)N1CCC[C@H]1C(=O)O [N-CBZ-Ala-Pro] (Cbz-Ala-Pro-OH),First-order rate constant,"200 μM substrate, converted from seconds^-1",3.84 min⁻¹
same,Log S/S-P,"200 μM substrate, flow rate 175 μl/min, 36.4 seconds",1.541
same,Log S/S-P,"200 μM substrate, flow rate 350 μl/min, 19.7 seconds",1.022
same,Log S/S-P,"200 μM substrate, flow rate 1000 μl/min, 6.90 seconds",.672
same,Log S/S-P,"200 μM substrate, flow rate 2000 ml/min (so in the source), 3.45 seconds",.560
same,First-order rate constant,[2],4.14 min⁻¹
same,Slope of log [S]/[S]-[P] over seconds,[2],0.030
same,Log S/S-P,"500 μM substrate, 1 pass at 2000 μl/min, 3.45 sec",.614
same,Log S/S-P,"500 μM substrate, 2 passes at 2000 μl/min, 6.90 sec",1.236
same,Log S/S-P,"500 μM substrate, 3 passes at 2000 μl/min, 10.35 sec",1.870
same,Slope of log [S]/[S]-[P] versus seconds,"500 μM substrate, repeated passes at 2000 μl/min",0.199
same,K^1 min^-1 (first order reaction constant),[1],22.40 min⁻¹
same,Log S/S-P,[1],0.560
same,Velocity,"substrate concentration 100 μM, flow rate 2.0 ml/min, pH 5.75",170 nM/min
same,Velocity,"substrate concentration 200 μM, flow rate 2.0 ml/min, pH 5.75",344 nM/min
same,Velocity,"substrate concentration 300 μM, flow rate 2.0 ml/min, pH 5.75",503 nM/min
same,Velocity,"substrate concentration 500 μM, flow rate 2.0 ml/min, pH 5.75",846 nM/min
same,Velocity,"substrate concentration 1000 μM, flow rate 2.0 ml/min, pH 5.75",1684 nM/min
O=C(NCC(=O)N1CCC[C@H]1C(=O)O)OCc1ccccc1 [N-CBZ-Gly-Pro] (Cbz-Gly-Pro-OH),K^1 min^-1 (first order reaction constant),[1],0.160 min⁻¹
same,Log S/S-P,[1],0.004
O=C(O)CC[C@H](NC(=O)OCc1ccccc1)C(=O)N[C@@H](Cc1ccc(O)cc1)C(=O)O [N-CBZ-Glu-Tyr] (Cbz-Glu-Tyr-OH),K^1 min^-1 (first order reaction constant),[1],24.24 min⁻¹
same,Log S/S-P,[1],0.606
CC(C)C[C@H](NC(=O)[C@H](C)NC(=O)OCc1ccccc1)C(=O)O [N-CBZ-Ala-Leu] (Cbz-Ala-Leu-OH),K^1 min^-1 (first order reaction constant),[1],27.52 min⁻¹
same,Log S/S-P,[1],0.688
CC(C)C[C@H](NC(=O)[C@@H]1CCCN1C(=O)CNC(=O)OCc1ccccc1)C(=O)N[C@@H](C)C(=O)N1CCC[C@H]1C(=O)O [N-CBZ-Gly-Pro-Leu-Ala-Pro] (Cbz-GPLAP-OH),"Concentration of amino acids released, standard ninhydrin assay",[3],353.4 µM
same,"Concentration of proline released, proline ninhydrin assay",[3],195.6 µM
same,"Concentration of amino acids released, standard ninhydrin assay",[4],384.0 µM
same,"Concentration of proline released, proline ninhydrin assay",[4],212.5 µM
same,"Concentration of amino acids released, standard ninhydrin assay",[5],315.9 µM
same,"Concentration of proline released, proline ninhydrin assay",[5],196.5 µM
same,"Concentration of amino acids released, standard ninhydrin assay",[6],265.7 µM
same,"Concentration of proline released, proline ninhydrin assay",[6],197.0 µM
same,Kinetic constant k for the remaining Pro-Leu bond,[7],18.39
same,Product released in second flow,[7],87.7 µM
